# Assay results published in EP2999467B1, “USE OF A COMBINATION OF TWO COMPOUNDS FOR THE TREATMENT AND/OR PREVENTION OF BONE DISORDERS” (Institut National de la Recherche Agronomique (INRA), priority 2013, dated 2014).
# Like-named read-outs stand apart in the source and are kept apart here.
# Assays:
# phosphatase alcaline = assay: Quantitative RT-PCR, osteoblast differentiation marker: alkaline phosphatase; type: cell-based, rats Wistar; conditions: Rattus norvegicus; for activation at 5 µM: AA+βGP+Fisétine 5µM
# Text: (§1) Les préostéoblastes primaires ont été isolés à partir de la calotte crânienne de rats Wistar nouveaux-nés par digestion enzymatique comme précédemment décrit [Declercq, H., Van den Vreken, N., De Maeyer, E., Verbeeck, R., Schacht, E., De Ridder, L., and Cornelissen, M. (2004). Isolation, proliferation and differentiation of osteoblastic cells to study cell/biomaterial interactions: comparison of different isolation techniques and source. Biomaterials 25, 757-68.]. Les précurseurs d'ostéoclastes RAW264.7 ont été obtenus auprès de l'ATCC (Manassas, VA, USA). Les préostéoblastes et les RAW264.7 ont été cultivés dans du milieu α-MEM (Invitrogen, Carlsbad, CA, USA) supplémenté avec 10% de SVF décomplémenté et de 100 unités/ml de pénicilline-streptomycine.
# (§2) L'extraction des ARN totaux (cellules et fémurs) a été effectuée en utilisant le réactif TRIzol, la transcription inverse (RT) a été réalisée à l'aide du kit de synthèse d'ADNc Dynamo (Thermo Scientific, Waltham, MA, USA) et l'analyse PCR en temps réel a été réalisée avec le Mastercycler ep Realplex2 (Eppendorf, Hambourg, Allemagne). Toutes les valeurs ont été normalisées par la GAPDH. Les séquences des oligos utilisés sont : ALP F 5'-GGCCAGCTACACCACAACA-3' / ALP R 5'-[…] -3' / OCN F 5'-AGACTCCGGCGCTACCTT -3' / OCN R 5'-[…]-3'/ COL1 F 5'-[…]-3' / COL1 R 5'-[…]-3' / GAPDH F 5'-[…]-3' / GAPDH R 5'-[…]-3'
# ostéocalcine sérique = assay: Ovariectomy-induced bone loss: serum osteocalcin (ELISA); type: in vivo, souris C57BL/6J; conditions: daily Fisétine 25mg/kg by gavage
# Protocol: Tout au long de l'étude, les animaux ont été logés dans un environnement contrôlé (12:12 h cycle lumière-obscurité, 20-22 ° C, 50-60% d'humidité relative, 1 souris par cage en plastique avec un accès libre à l'eau. Les souris C57BL/6J ont été livrées 2 semaines avant l'étude pour l'acclimatation à notre environnement sous régime standard semi-purifié. Pour toutes les expériences, les souris de 8 semaines (n=12/groupe) ont été gavées avec le véhicule (1% d'éthanol, 0,2% hydroxypropylcellulose dans de l'eau distillée) ou avec la fisétine (5 à 50 mg/kg dans le véhicule) pendant une semaine. Ensuite, pour l'expérience OVX, les souris ont été pseudo-opérées ou ovariectomisées bilatéralement et ont reçu quotidiennement par gavage le véhicule ou la fisétine pendant 4 semaines. A la fin de l'expérimentation, le sérum, les cornes utérines, les tibias et les fémurs ont été recueillis pour analyse. Pour l'expérience de perte osseuse induite par LPS, le véhicule (PBS) ou le LPS (sérotype 026: B6, 25mg/kg) ont été injectés par voie sous-cutanée au niveau de la calotte crânienne, une fois par semaine pendant 3 semaines sous anesthésie. Durant ces 3 semaines, les souris ont reçu soit le véhicule (1% d'éthanol, 0,2% hydroxypropylcellulose dans de l'eau distillée) soit la fisétine quotidiennement par gavage. […]
# collagène de type 1 = assay: Quantitative RT-PCR, osteoblast differentiation marker: type 1 collagen; type: cell-based, rats Wistar; conditions: Rattus norvegicus; for activation at 5 µM: AA+βGP+Fisétine 5µM
# Text: as §1, §2
# ostéocalcine = assay: Quantitative RT-PCR, osteoblast differentiation marker: osteocalcin; type: cell-based, rats Wistar; conditions: Rattus norvegicus; for activation at 5 µM: AA+βGP+Fisétine 5µM
# Text: as §1, §2
# RAW264.7 = assay: TRAP staining: RANKL-induced osteoclast differentiation, count of multinucleated TRAP+ cells; type: cell-based
# Text: as §1
# Pour la coloration TRAP, 60.000 cellules RAW264.7 ont été ensemencées dans des puits de plaques 12 puits pendant 12 heures puis traitées avec du DMSO/éthanol comme témoin ou de la fisétine (5 µM dans le DMSO) ou du DHA (50µM dans l'éthanol) ou la combinaison des deux (Fisétine 5 µM et DHA 50 µM) pendant 3 heures. Les cellules ont ensuite été induites à se différencier en présence de RANKL (50 ng/ml) avec du DMSO/éthanol ou de la fisétine (5 µM) ou du DHA (50 µM) ou la combinaison des deux (Fisétine 5 µM et DHA 50 µM) durant 4 jours avec un changement de milieux après 2 jours. De la BSA délipidée et sans endotoxines a été utilisée pour solubiliser le DHA avec un rapport 1/5 (BSA/DHA).
# La coloration TRAP a été réalisée en utilisant le kit « leukocyte acid phosphatase » (Sigma-Aldrich) selon les recommandations du fournisseur après fixation des cellules. Les cellules TRAP+ multinucléées ont ensuite été comptées.
compound,measurement,setting,value
"O=c1c(O)c(-c2ccc(O)c(O)c2)oc2cc(O)ccc12 [Fisétine, 3,3',4',7-tétrahydroxyflavone]",activation at 1 µM,"phosphatase alcaline; 168 h, AA+βGP+Fisétine 1 µM, J7, read-out: expression de la phosphatase alcaline par rapport à la condition « AA+βGP seuls »",84%
same,activation at 5 µM,"phosphatase alcaline; 168 h, J7, read-out: expression de la phosphatase alcaline par rapport à la condition « AA+βGP seuls »",146%
same,activation at 1 µM,"phosphatase alcaline; 336 h, AA+βGP+Fisétine 1µM, J14, read-out: expression de la phosphatase alcaline par rapport à la condition « AA+βGP seuls »",37%
same,activation at 5 µM,"phosphatase alcaline; 336 h, J14, read-out: expression de la phosphatase alcaline par rapport à la condition « AA+βGP seuls »",88%
same,taux sérique d'ostéocalcine par rapport à la condition témoin « SH »,ostéocalcine sérique,+61%
same,activation at 1 µM,"collagène de type 1; 168 h, AA+βGP+Fisétine 1 µM, J7, read-out: expression du collagène de type 1 par rapport à la condition « AA+βGP seuls »",34%
same,activation at 5 µM,"collagène de type 1; 168 h, J7, read-out: expression du collagène de type 1 par rapport à la condition « AA+βGP seuls »",80%
same,activation at 1 µM,"collagène de type 1; 336 h, AA+βGP+Fisétine 1µM, J14, read-out: expression du collagène de type 1 par rapport à la condition « AA+βGP seuls »",60%
same,activation at 5 µM,"collagène de type 1; 336 h, J14, read-out: expression du collagène de type 1 par rapport à la condition « AA+βGP seuls »",138%
same,activation at 1 µM,"ostéocalcine; 168 h, AA+βGP+Fisétine 1 µM, J7, read-out: expression de l'ostéocalcine par rapport à la condition « AA+βGP seuls »",63%
same,activation at 5 µM,"ostéocalcine; 168 h, J7, read-out: expression de l'ostéocalcine par rapport à la condition « AA+βGP seuls »",177%
same,activation at 1 µM,"ostéocalcine; 336 h, AA+βGP+Fisétine 1µM, J14, read-out: expression de l'ostéocalcine par rapport à la condition « AA+βGP seuls »",63%
same,activation at 5 µM,"ostéocalcine; 336 h, J14, read-out: expression de l'ostéocalcine par rapport à la condition « AA+βGP seuls »",131%
same,inhibition at 5 µM,"RAW264.7; Mus musculus, RAW264.7, 96 h, Fisétine 5µM, RANKL 50 ng/ml, 4 days, vs RANKL condition, read-out: inhibition de l'induction par RANKL de la formation de cellules multinucléées TRAP+ (ostéoclastes)",45%
same,ostéoclastes/cm^2,"RAW264.7; condition RANKL+Fisétine (5µM), RANKL alone 735+/-251",404+/-148 ostéoclastes/cm^2
